In ChEMBL document CHEMBL4028838, “Structure-related protein tyrosine phosphatase 1B inhibition by naringenin derivatives” (Bioorg Med Chem Lett, 2017):
pIC50: −log10 of the molar value.

How the values were obtained:
[1] = Inhibition of alpha-glucosidase (unknown origin)
[2] = test system: HepG2; test: Anti-diabetic activity in insulin-resistant human HepG2 cells assessed as increase in insulin-stimulated 2-NBDG uptake at 10 uM pretreated for 24 hrs followed by 2-NBDG addition measured after 30 mins by fluorescence assay relative to control; format: functional
[3] = test system: HepG2; test: Anti-diabetic activity in insulin-resistant human HepG2 cells assessed as increase in insulin-stimulated 2-NBDG uptake at 50 uM pretreated for 24 hrs followed by 2-NBDG addition measured after 30 mins by fluorescence assay relative to control; format: functional
[4] = target: T1, Tyrosine-protein phosphatase non-receptor type 1 (Homo sapiens, UniProt P18031); test: Inhibition of PTP1B (unknown origin) using pNPP as substrate pretreated for 10 mins followed by substrate addition measured after 20 mins by spectrophotometric method
T1 sequence (P18031 whole entry): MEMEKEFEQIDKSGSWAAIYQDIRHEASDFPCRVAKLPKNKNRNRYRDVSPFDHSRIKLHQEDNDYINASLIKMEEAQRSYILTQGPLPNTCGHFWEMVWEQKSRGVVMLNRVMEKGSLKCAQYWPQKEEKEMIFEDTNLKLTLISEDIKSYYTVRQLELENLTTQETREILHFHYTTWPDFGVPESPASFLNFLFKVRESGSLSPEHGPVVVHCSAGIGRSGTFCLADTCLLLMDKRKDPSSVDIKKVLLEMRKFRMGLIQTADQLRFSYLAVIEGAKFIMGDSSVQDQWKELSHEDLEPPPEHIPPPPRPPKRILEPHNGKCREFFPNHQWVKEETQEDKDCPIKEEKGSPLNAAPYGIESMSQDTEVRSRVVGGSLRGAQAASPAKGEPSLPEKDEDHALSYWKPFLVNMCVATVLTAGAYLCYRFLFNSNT

[5] = test system: HepG2; test: Anti-diabetic activity in insulin-resistant human HepG2 cells assessed as increase in insulin-stimulated 2-NBDG uptake pretreated for 24 hrs followed by 2-NBDG addition measured after 30 mins by fluorescence assay; format: functional, cell-based

C[C@H]1O[C@H](O[C@H]2[C@H](O)[C@@H](O)[C@@H](O[C@H]3[C@H](O)[C@@H](O)C(O)O[C@@H]3CO)O[C@@H]2CO)[C@H](O)[C@@H](O)[C@@H]1N[C@H]1C=C(CO)[C@@H](O)[C@H](O)[C@H]1O (stereo partly drawn) [ACARBOSE]
pIC50 [1]: 3.75

CN(C)C(=N)NC(=N)N [METFORMIN]
Activity [2]: 125%

O=C1C[C@@H](c2ccc(O)cc2)Oc2cc(O)cc(O)c21 [NARINGENIN]
pIC50 [1]: 4.97 | Activity [3]: 71.23% | pIC50 [4]: 3.89 | Activity [5]: Dose-dependent effect

O=C1C[C@@H](c2ccc(O)cc2)Oc2cc(O[C@@H]3O[C@H](CO)[C@@H](O)[C@H](O)[C@H]3O)cc(O)c21 [PRUNIN]
pIC50 [1]: 3.97 | Activity [3]: 109.45% | pIC50 [4]: 4.76 | Activity [5]: Dose-dependent effect

C[C@@H]1O[C@@H](OC[C@H]2O[C@@H](Oc3cc(O)c4c(c3)O[C@H](c3ccc(O)cc3)CC4=O)[C@H](O)[C@@H](O)[C@@H]2O)[C@H](O)[C@H](O)[C@H]1O [NARIRUTIN]
pIC50 [1]: < 3.70 | Activity [3]: 86.93% | pIC50 [4]: 4.25 | Activity [5]: Dose-dependent effect

C[C@@H]1O[C@@H](O[C@H]2[C@H](Oc3cc(O)c4c(c3)O[C@H](c3ccc(O)cc3)CC4=O)O[C@H](CO)[C@@H](O)[C@@H]2O)[C@H](O)[C@H](O)[C@H]1O [NARINGIN]
pIC50 [1]: < 3.70 | Activity [3]: 82.17% | pIC50 [4]: 4.04 | Activity [5]: Dose-dependent effect
